# In US11207291B2, “Antimicrobial compositions comprising cannabinoids and methods of using the same” (Graphium Biosciences, Inc., priority 2017, dated 2021):
# Columns and labels:
# S. pneumoniae ATCC 49619 = assay: MIC/MBC testing (Example 5); assay type: cell-based; details: Streptococcus pneumoniae, ATCC49619; Example 5; read-out: MIC
# S. pyogenes MMX 404 = assay: MIC/MBC testing (Example 5); assay type: cell-based; details: Streptococcus pyogenes, MMX404; Example 5; read-out: MIC
# E. faecalis MMX 848 = assay: MIC/MBC testing (Example 5); assay type: cell-based; details: Enterococcus faecalis, MMX848; Example 5; read-out: MIC
# S. aureus MMX 757 = assay: MIC/MBC testing (Example 5); assay type: cell-based; details: Staphylococcus aureus, MMX757; Example 5; read-out: MIC
# S. aureus ATCC 29213 = assay: MIC/MBC testing (Example 5); assay type: cell-based; details: Staphylococcus aureus, ATCC29213; Example 5; read-out: MIC
# E. coli ATCC 25922 = assay: MIC/MBC testing (Example 5); assay type: cell-based
# E. faecalis ATCC 29212 = assay: MIC/MBC testing (Example 5); assay type: cell-based; details: Enterococcus faecalis, ATCC29212; Example 5; read-out: MIC
# [1] = tested on: Enterococcus faecalis (VSE); assay: Broth microdilution MIC, aerobic bacteria (Example 1); assay type: cell-based; details: isolate MMX 101 (ATCC 29212)
# Clostridium difficile = assay: Broth microdilution MIC, anaerobic bacteria (Example 1); assay type: cell-based; details: Example 1
# Aspergillus fumigatus = assay: Broth microdilution MIC, yeast and fungi (Example 1); assay type: cell-based; details: isolate MMX 5280 (ATCC MYA-3626)
# Acinetobacter baumannii = assay: Broth microdilution MIC, aerobic bacteria (Example 1); assay type: cell-based; details: Example 1; isolate MMX 1630
# [2] = tested on: Enterococcus faecalis (VRE); assay: microbe, parasite or virus in culture; assay type: cell-based; details: Example 1; isolate MMX 848
# Pseudomonas aeruginosa = assay: Broth microdilution MIC, aerobic bacteria (Example 1); assay type: cell-based; details: Example 1; isolate MMX 1380
# [3] = tested on: Staphylococcus aureus (MSSA); assay: as above; assay type: cell-based; details: isolate MMX 100 (ATCC 29213)
# [4] = tested on: Klebsiella pneumoniae (KPC-2); assay type: cell-based; details: Example 1; isolate MMX 4683
# Lactobacillus jensenii = assay: Broth microdilution MIC, anaerobic bacteria (Example 1); assay type: cell-based; details: Example 1; isolate MMX 4149
# [5] = tested on: Staphylococcus aureus (MRSA); assay: microbe, parasite or virus in culture; assay type: cell-based; details: Example 1; isolate MMX 757
# Lactobacillus crispatus = assay: Broth microdilution MIC, anaerobic bacteria (Example 1); assay type: cell-based; details: Example 1; isolate MMX 4147
# Streptococcus pyogenes = assay: Broth microdilution MIC, aerobic bacteria (Example 1); assay type: cell-based; details: isolate MMX 404
# Bifidobacterium bifidum = assay: Broth microdilution MIC, anaerobic bacteria (Example 1); assay type: cell-based; details: Example 1; isolate MMX 3965
# [6] = Bioavailability assay: VB110 and CBD decoupling analysis of intestinal contents (Example 2); assay type: in vivo; details: mice, oral gavage 120 mg/kg VB110
# Procedure: In order to investigate the effectiveness of glycosylation to effect site-specific drug delivery, VB110 was administered to three mice by oral gavage and the animals sacrificed at 30, 60, and 90 minutes. Eight-week old male Swiss mice were fasted for 12 hours prior to administration of 120 mg/kg VB110 in 10% Ethanol USP, 10% Propylene Glycol USP, 0.05% Sodium Deoxycholate USP, 79.95% Saline USP. Following termination and tissue harvest, the intestinal contents were then extracted and analyzed by C18 reverse phase HPLC. […] This decoupling of VB110 is consistent with the large intestinal decoupling seen for sennoside beta-glycosides and is the result of secreted beta-glycosidases from the large intestinal microflora.
# Bifidobacterium longum = assay: Broth microdilution MIC, anaerobic bacteria (Example 1); assay type: cell-based; details: Example 1; isolate MMX 3968
# Streptococcus pneumoniae = assay: Broth microdilution MIC, aerobic bacteria (Example 1); assay type: cell-based; details: Example 1; isolate MMX 1195 (ATCC 49619)
# Candida parapsilosis = assay: Broth microdilution MIC, yeast and fungi (Example 1); assay type: cell-based
# Escherichia coli = assay: Broth microdilution MIC, aerobic bacteria (Example 1); assay type: cell-based; details: isolate MMX 102 (ATCC 25922)
# [7] = Compound precipitation in uninoculated solubility controls (Example 1); assay type: physicochemical; parameters: key to precipitation observed (type): NA: not applicable (no precipitation observed); TRP: trace precipitate; DCP: distinct precipitate
# Procedure: Plates were stacked 3-4 high, covered with a lid on the top plate, placed in plastic bags, and incubated at 35° C. for approximately 16 to 20 hr (aerobes), 20 to 24 hr (Streptococcus), and 24 and 48 hr (fungi). Anaerobe plates were stacked, covered with a lid on the top plate, placed in a BD GasPak EZ Anaerobe Container System and incubated at 35° C. for 48 hr. Following incubation, the microplates were removed from the incubator and viewed from the bottom using a plate viewer. […] The MIC was read and recorded as the lowest concentration of drug that inhibited visible growth of the organism.
# Bacteroides fragilis = assay: Broth microdilution MIC, anaerobic bacteria (Example 1); assay type: cell-based; details: Example 1; isolate MMX 123 (ATCC 5285)
smiles,measurement,setting,value
C[C@@H](O)[C@H]1C(=O)N2C(C(=O)O)=C(SCCN=CN)C[C@H]12 [Imipenem],MIC,S. pneumoniae ATCC 49619,0.015 µg/mL
same,MIC,S. pyogenes MMX 404,≤ 0.008 µg/mL
same,MIC,E. faecalis MMX 848,1 µg/mL
same,MIC,S. aureus MMX 757,4 µg/mL
same,MIC,S. aureus ATCC 29213,0.015 µg/mL
same,MBC,"E. coli ATCC 25922; Escherichia coli, ATCC25922, Example 5, quality control MBC test",0.12 µg/mL
same,MIC,"E. coli ATCC 25922; Escherichia coli, ATCC25922, Example 5, read-out: MIC",0.12 µg/mL
same,MBC:MIC,E. coli ATCC 25922; ratios of 1-4 are indicative of bactericidal activity,1
same,MIC,E. faecalis ATCC 29212,0.5 µg/mL
C=C(C)[C@@H]1CCC(C)=C[C@H]1c1c(O[C@@H]2O[C@H](CO)[C@@H](O)[C@H](O)[C@H]2O)cc(CCCCC)cc1O[C@@H]1O[C@H](CO)[C@@H](O)[C@H](O)[C@H]1O [VB110],MIC,[1],>256 µg/mL
same,MIC,Clostridium difficile; isolate MMX 4381 (ATCC 00057),>256 µg/mL
same,MIC,Clostridium difficile; isolate MMX 8330,>256 µg/mL
same,MIC,Clostridium difficile; isolate MMX 8333,>256 µg/mL
same,MIC at 24 hr,Aspergillus fumigatus; 24 hr,">256, μg/mL"
same,MIC at 48 hr,Aspergillus fumigatus; 48 hr,>256 µg/mL
same,MIC,Acinetobacter baumannii,>256 µg/mL
same,MIC,[2],>256 µg/mL
same,MIC,Pseudomonas aeruginosa,>256 µg/mL
same,MIC,[3],>256 µg/mL
same,MIC,[4],>256 µg/mL
same,MIC,Lactobacillus jensenii,>256 µg/mL
same,MIC,[5],>256 µg/mL
same,MIC,Lactobacillus crispatus,>256 µg/mL
same,MIC,Streptococcus pyogenes,>256 µg/mL
same,MIC,Bifidobacterium bifidum,>256 µg/mL
same,small intestinal contents (HPLC),"[6]; 30, 60, and 90 minutes","intact VB110, but no decoupled CBD"
same,large intestinal contents (HPLC),[6]; 60 and 90 minute time points,contained both VB110 and CBD
same,MIC,Bifidobacterium longum,>256 µg/mL
same,MIC,Streptococcus pneumoniae,>256 µg/mL
same,inhibition of growth relative to the growth control,"Candida parapsilosis; 24 and 48 hr, concentrations >16 μg/mL",50%
same,MIC at 24 hr,"Candida parapsilosis; Example 1, 24 hr, isolate MMX 2323 (ATCC 22019)",">256^2, μg/mL"
same,MIC at 48 hr,"Candida parapsilosis; Example 1, 48 hr, isolate MMX 2323 (ATCC 22019)",>256^2 μg/mL
same,MIC,Escherichia coli,>256 µg/mL
same,precipitation observed (type),[7]; MHB II,none
same,lowest concentration at which precipitation was observed,[7]; RPMI,32 µg/mL
same,precipitation observed (type),[7]; RPMI,TRP
same,MIC,Bacteroides fragilis,>256 µg/mL
